Results as given in ChEMBL document CHEMBL1201862, “PubChem BioAssay data set” (2004).
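Five concentrations, 48 hours, 96-well plates. Abbreviation: GI50, concentration required for 50% inhibition of growth.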 Active and inactive are the calls of the source. Rule as the data show it: active = GI50 up to about 1.1 µM and inactive = higher.

Legend:
Experiment in all cases: inhibition of tumour cell growth, NCI panel, 48 h
PC-3 = system: PC-3
DU-145 = system: DU-145
OVCAR-8 = system: OVCAR-8
UACC-62 = system: UACC-62
SW-620 = system: SW-620
T47D = system: T47D
NCI/ADR-RES = system: NCI/ADR-RES
SR = system: SR
MDA-MB-231 = system: MDA-MB-231
Hs-578T = system: Hs-578T
UO-31 = system: UO-31
A498 = system: A498
MDA-N = system: MDA-N
NCI-H522 = system: NCI-H522
RPMI-8226 = system: RPMI-8226
ACHN = system: ACHN
OVCAR-3 = system: OVCAR-3
786-0 = system: 786-0
CCRF-CEM = system: CCRF-CEM
HOP-92 = system: HOP-92
NCI-H460 = system: NCI-H460
K562 = system: K562
OVCAR-4 = system: OVCAR-4
HCC 2998 = system: HCC 2998
SNB-75 = system: SNB-75
MDA-MB-435 = system: MDA-MB-435
NCI-H226 = system: NCI-H226
HCT-15 = system: HCT-15
LOX IMVI = system: LOX IMVI
RXF 393 = system: RXF 393
SNB-19 = system: SNB-19
SF-295 = system: SF-295
SF-539 = system: SF-539
KM12 = system: KM12
MOLT-4 = system: MOLT-4
SK-MEL-2 = system: SK-MEL-2
TK-10 = system: TK-10
CAKI-1 = system: CAKI-1
COLO 205 = system: COLO 205
SN12C = system: SN12C
IGROV-1 = system: IGROV-1
MCF7 = system: MCF7
HOP-62 = system: HOP-62
SK-MEL-5 = system: SK-MEL-5
HL-60 = system: HL-60
UACC-257 = system: UACC-257
OVCAR-5 = system: OVCAR-5
SK-MEL-28 = system: SK-MEL-28
Malme-3M = system: Malme-3M
U-251 = system: U-251
A549 = system: A549
SK-OV-3 = system: SK-OV-3
EKVX = system: EKVX
M14 = system: M14
HCT-116 = system: HCT-116
NCI-H23 = system: NCI-H23
SF-268 = system: SF-268
HT-29 = system: HT-29
BT-549 = system: BT-549

Which GI50 (PC-3) does the source give for `CS(=O)(=O)c1ccc(C2=C(c3ccccc3)C(=O)OC2)cc1` [ROFECOXIB] here?
Its GI50 is > 100 µM (inactive).

And the GI50 (DU-145)?
Its GI50 is > 100 µM (inactive).

And the GI50 (OVCAR-8)?
Its GI50 is > 100 µM (inactive).

What about the GI50 (UACC-62) of the same compound?
The GI50 was > 100 µM (inactive).

And the GI50 (SW-620)?
Its GI50 is > 100 µM (inactive).

And the GI50 (T47D)?
The GI50 was > 100 µM (inactive).

And the GI50 (NCI/ADR-RES)?
Its GI50 is > 100 µM (inactive).

And the GI50 (SR)?
The GI50 was > 100 µM (inactive).

What about the GI50 (MDA-MB-231) of the same compound?
Its GI50 is > 100 µM (inactive).

What about the GI50 (Hs-578T) of the same compound?
Its GI50 is > 100 µM (inactive).

And the GI50 (UO-31)?
The GI50 was > 100 µM (inactive).

And the GI50 (A498)?
Its GI50 is > 100 µM (inactive).

What about the GI50 (MDA-N) of the same compound?
The GI50 was > 100 µM (inactive).

And the GI50 (NCI-H522)?
The GI50 was > 100 µM (inactive).

And the GI50 (RPMI-8226)?
The GI50 was > 100 µM (inactive).

And the GI50 (ACHN)?
Its GI50 is > 100 µM (inactive).

And the GI50 (OVCAR-3)?
Its GI50 is > 100 µM (inactive).

What about the GI50 (786-0) of the same compound?
Its GI50 is > 100 µM (inactive).

What about the GI50 (CCRF-CEM) of the same compound?
Its GI50 is > 100 µM (inactive).

What about the GI50 (HOP-92) of the same compound?
The GI50 was > 100 µM (inactive).

And the GI50 (NCI-H460)?
The GI50 was > 100 µM (inactive).

And the GI50 (K562)?
Its GI50 is > 100 µM (inactive).

And the GI50 (OVCAR-4)?
The GI50 was > 100 µM (inactive).

What about the GI50 (HCC 2998) of the same compound?
The GI50 was > 100 µM (inactive).

What about the GI50 (SNB-75) of the same compound?
Its GI50 is > 100 µM (inactive).

What about the GI50 (MDA-MB-435) of the same compound?
The GI50 was > 100 µM (inactive).

And the GI50 (NCI-H226)?
Its GI50 is > 100 µM (inactive).

And the GI50 (HCT-15)?
The GI50 was greater than 100 µM.

And the GI50 (LOX IMVI)?
The GI50 was > 100 µM (inactive).

And the GI50 (RXF 393)?
Its GI50 is > 100 µM (inactive).

And the GI50 (SNB-19)?
The GI50 was > 100 µM (inactive).

And the GI50 (SF-295)?
Its GI50 is > 100 µM (inactive).

What about the GI50 (SF-539) of the same compound?
The GI50 was > 100 µM (inactive).

What about the GI50 (KM12) of the same compound?
The GI50 was > 100 µM (inactive).

What about the GI50 (MOLT-4) of the same compound?
Its GI50 is > 100 µM (inactive).

What about the GI50 (SK-MEL-2) of the same compound?
The GI50 was > 100 µM (inactive).

And the GI50 (TK-10)?
Its GI50 is > 100 µM (inactive).

And the GI50 (CAKI-1)?
The GI50 was > 100 µM (inactive).

What about the GI50 (COLO 205) of the same compound?
Its GI50 is > 100 µM (inactive).

And the GI50 (SN12C)?
Its GI50 is > 100 µM (inactive).

What about the GI50 (IGROV-1) of the same compound?
The GI50 was > 100 µM (inactive).

And the GI50 (MCF7)?
Its GI50 is > 100 µM (inactive).

What about the GI50 (HOP-62) of the same compound?
The GI50 was > 100 µM (inactive).

And the GI50 (SK-MEL-5)?
The GI50 was > 100 µM (inactive).

What about the GI50 (HL-60) of the same compound?
The GI50 was > 100 µM (inactive).

What about the GI50 (UACC-257) of the same compound?
Its GI50 is > 100 µM (inactive).

And the GI50 (OVCAR-5)?
Its GI50 is > 100 µM (inactive).

And the GI50 (SK-MEL-28)?
The GI50 was > 100 µM (inactive).

What about the GI50 (Malme-3M) of the same compound?
The GI50 was > 100 µM (inactive).

What about the GI50 (U-251) of the same compound?
Its GI50 is > 100 µM (inactive).

And the GI50 (A549)?
The GI50 was > 100 µM (inactive).

What about the GI50 (SK-OV-3) of the same compound?
Its GI50 is > 100 µM (inactive).

And the GI50 (EKVX)?
Its GI50 is > 100 µM (inactive).

And the GI50 (M14)?
Its GI50 is > 100 µM (inactive).

And the GI50 (HCT-116)?
Its GI50 is > 100 µM (inactive).

And the GI50 (NCI-H23)?
The GI50 was > 100 µM (inactive).

What about the GI50 (SF-268) of the same compound?
Its GI50 is > 100 µM (inactive).

How did the GI50 (PC-3) turn out when `Cn1c2nc3ccccc3c-2cc2ccccc21` [NEOCRYPTOLEPINE] was run?
The GI50 was 3.3 µM (inactive).

And the GI50 (DU-145)?
The GI50 was 6.82 µM (inactive).

What about the GI50 (SW-620) of the same compound?
Its GI50 is 3.68 µM (inactive).

And the GI50 (T47D)?
The GI50 was 4.81 µM (inactive).

And the GI50 (HT-29)?
The GI50 was 2.51 µM (inactive).

And the GI50 (SR)?
Its GI50 is 2.2 µM (inactive).

And the GI50 (OVCAR-3)?
The GI50 was 5.18 µM (inactive).

And the GI50 (786-0)?
Its GI50 is 3.84 µM (inactive).

What about the GI50 (CCRF-CEM) of the same compound?
Its GI50 is 3.15 µM (inactive).

And the GI50 (NCI-H460)?
The GI50 was 2.38 µM (inactive).

What about the GI50 (K562) of the same compound?
Its GI50 is 3.41 µM (inactive).

What about the GI50 (HCC 2998) of the same compound?
The GI50 was 2.48 µM (inactive).

And the GI50 (MDA-MB-435)?
Its GI50 is 4.2 µM (inactive).

What about the GI50 (LOX IMVI) of the same compound?
Its GI50 is 3.27 µM (inactive).

And the GI50 (BT-549)?
The GI50 was 3.19 µM (inactive).

What about the GI50 (SF-295) of the same compound?
The GI50 was 4.59 µM (inactive).

What about the GI50 (SF-539) of the same compound?
Its GI50 is 3.05 µM (inactive).

And the GI50 (COLO 205)?
The GI50 was 2.93 µM (inactive).

And the GI50 (IGROV-1)?
Its GI50 is 2.7 µM (inactive).

And the GI50 (MCF7)?
The GI50 was 2.74 µM (inactive).

And the GI50 (HL-60)?
Its GI50 is 2.38 µM (inactive).

What about the GI50 (SK-OV-3) of the same compound?
Its GI50 is 6.47 µM (inactive).

And the GI50 (EKVX)?
Its GI50 is 2.28 µM (inactive).
